Measured values from patent publication US4213998A, “Inhibition of lipogenesis” (Shell Oil Company, priority 1979, dated 1980).

The molecules below were run on swine adipose tissue (assay: Inhibition of lipogenesis (incorporation of 14C-glucose into lipid) in swine adipose tissue slices). Conditions: Sus scrofa, 100 micrograms per milliliter, 37° C., 2 hours, glucose-U-14C, insulin, 5% DMSO, triplicate, read-out: Percent Inhibition of lipogenesis compared to control.
Type: cell-based
Excerpt: The manner in which they cause this effect is not known with certainty; it is believed that they interfere with the synthesis of fatty acids in the tissues. Their effectiveness for this purpose has been ascertained by immersing sales of swine adipose tissue in a liquid medium containing radioactive glucose and the test chemical for a period of time, then isolating the lipid from the treated tissue and determining the incorporation of the radioactive carbon into lipid by means of scintillation counting techniques. These tests were conducted in swine adipose tissues because in swine, the primary site of lipogenesis--i.e., fatty acid synthesis--appears to be adipose tissue.
Described in more detail, the tests were conducted according to the following general procedure:
150 milligrams of slices of swine adipose tissue were incubated at 37° C. for 2 hours with shaking in 3 milliliters of Krebs-Ringer bicarbonate solution containing one-half the normal calcium ion concentration, 60 micromoles of glucose, 0.5 micro-Curie of glucose-U^14 C, and 300 microunits of insulin, and 5% dimethylsulfoxide (DMSO). The test compounds were added as a solution or suspension in DMSO and were present at a concentration of 100 micrograms per milliliter of the incubation mixture.
The incubation was terminated by addition of 0.25 milliliter of 1 N sulfuric acid. The resulting mixture was extracted with a total of 25 milliliters of chloroform/methanol (2:1 v/v). The extracts were washed according to Folch et al. (J. Biol. Chem. 226, 497-509, (1957)), air dried, and counted in a liquid scintillation counter with 15 milliliters of counting fluid (two parts toluene containing 0.4% w/v New England Nuclear Omnifluor/1part Triton X-100). The tests were conducted in triplicate and were accompanied by control tests in which all ingredients,proportions and conditions were the same except that no test compound was included. From the data obtained were calculated the precent inhibition of lipid synthesis by the test compounds in each case. The data obtained from the tests are set out in Table 1,as the percent inhibition of lipogenesis compared to the results obtained in the control tests wherein only the test compound was omitted.

Compound	inhibition at 100 µg/mL [%]
O=C(O)c1cc2cc(-c3ccccc3)ccc2o1 [Compound 1, 5-phenyl-2-benzofurancarboxylic acid]	49
O=C(O)C1Cc2cc(-c3ccccc3)ccc2O1 (stereo not drawn) [Compound 2, 2,3-dihydro-5-phenyl-2-benzofurancarboxylic acid]	50
CCC(C)c1ccc2oc(C(=O)O)cc2c1 (stereo not drawn) [Compound 3]	64
O=C(O)c1cc2cc(C3CCCCC3)ccc2o1 [Compound 4]	91
O=C(O)c1cc2ccc(Oc3ccccc3)cc2o1 [Compound 5]	86
O=C(c1ccccc1)c1ccc2oc(C(=O)O)cc2c1 [Compound 6]	44
CCCCCCOc1ccc2oc(C(=O)O)cc2c1 [Compound 7]	78
O=C(O)c1cc2cc(Cc3ccccc3)ccc2o1 [Compound 8]	87
O=C(O)c1cc2c(Oc3ccccc3)cccc2o1 [Compound 9, 4-phenoxy-2-benzofurancarboxylic acid]	83
CC(=O)c1ccc(-c2ccc3oc(C(=O)O)cc3c2)cc1 [Compound 10, 5-(4-acetylphenyl)-2-benzofurancarboxylic acid]	41
CC(=O)Oc1ccc(-c2ccc3oc(C(=O)O)cc3c2)cc1 [Compound 11, 5-(4-(acetyloxy)phenyl)-2-benzofurancarboxylic acid]	80
O=C(O)c1cc2cc(-c3ccc(Cl)cc3)ccc2o1 [Compound 12, 5-(4-chlorophenyl)-2-benzofurancarboxylic acid]	55
COc1cccc2cc(C(=O)O)oc12 [Compound 13]	22
COc1ccc2cc(C(=O)O)oc2c1OC [Compound 14]	24
O=C(O)c1cc2cccc(Cl)c2o1 [Compound 15]	59
O=C(O)c1cc2cc(-c3ccc(O)cc3)ccc2o1 [Compound 16, 5-(4-hydroxyphenyl)-2-benzofurancarboxylic acid]	30
COc1ccc(-c2ccc3oc(C(=O)O)cc3c2)cc1 [Compound 17, 5-(4-methoxyphenyl)-2-benzofurancarboxylic acid]	56
CCC(C)c1ccc2c(c1)CC(C(=O)O)O2 (stereo not drawn) [Compound 18]	35
O=C(O)C1Cc2cc(C3CCCCC3)ccc2O1 (stereo not drawn) [Compound 19]	72
O=C(O)C1Cc2cc(Cc3ccccc3)ccc2O1 (stereo not drawn) [Compound 20]	40
CCCCCCOc1ccc2c(c1)CC(C(=O)O)O2 (stereo not drawn) [Compound 21]	49
O=C(O)C1Cc2ccc(Oc3ccccc3)cc2O1 (stereo not drawn) [Compound 22]	62
O=C(O)C1Cc2c(Oc3ccccc3)cccc2O1 (stereo not drawn) [Compound 23]	27
O=C(O)C1Cc2cc(-c3ccc(Cl)cc3)ccc2O1 (stereo not drawn) [Compound 24]	56
